From patent US20030187064A1, “Use” (priority 2001, published 2003)
Where “and” joins values, the source holds several entries; their conditions need not be identical. Equal entries are not always repeated.

Legend:
[1] = Irritation effect of shampoo on the scalp; conditions: added to shampoo, 2000 ppm
[2] = Preserving effect in shampoo; conditions: 2000 ppm; compared with a normally used preservative
[3] = Preserving effect in skin cream (oil-in-water); conditions: 250 or 2000 ppm; compared with methyl paraben
[4] = Preserving effect in toothpaste; conditions: 2000 ppm; compared with sodium benzoate
[5] = Irritation effect of skin cream on the skin; conditions: added to skin cream, 250 or 2000 ppm
B. anthracis 204 = assay type: cell-based, Bacillus anthracis; conditions: 24 h at 30° C.
caries = test: Caries inhibition by toothpaste with APP; conditions: added to toothpaste, 2000 ppm
[6] = cited from earlier work
Bacillus anthracis = assay type: cell-based
[7] = Stability of APP in water; conditions: water at 24° C.
[8] = tests disclosed in the literature (Baute et al. 1993); cited from earlier work
B. anthracis 3.046 = assay type: cell-based, Bacillus anthracis; conditions: 24 h at 30° C.
B. anthracis = assay type: cell-based, Bacillus anthracis; conditions: 24 h at 30° C.
[9] = test system: yeasts and moulds as well as catalase-positive bacteria; conditions: cited from earlier work
[10] = test system: Gram-positive bacteria, yeasts, and moulds; conditions: cited from earlier work
[11] = test system: aerobic, Gram-negative bacteria; conditions: cited from earlier work
bacteria = conditions: cited from earlier work
moulds = conditions: pH of 5.5; cited from earlier work

O=C1CO[C@H](CO)[C@@H](O)[C@@H]1O [AF, 1,5-anhydro-D-fructose]
Irritation effect on the scalp [1]: no irritation effect
Preserving effect in shampoo [2]: as good preservatives as the commonly used preservative
Preserving effect in skin cream [3]: as good preservatives as the commonly used preservative
Preserving effect in toothpaste [4]: as good preservatives as the commonly used preservative
Irritation effect on the skin [5]: no irritation effect

O=C1C[C@@H](CO)OC=C1O [APP, 1,5-Anhydro-4-deoxy-D-glycero-hex-1-en-3-ulose]
APP level causing significant inhibition (B. anthracis 204): 4000 ppm and 2000 ppm
APP level causing total inhibition (B. anthracis 204): >4000 ppm and 4000 ppm
Irritation effect on the scalp [1]: no irritation effect
Preserving effect in shampoo [2]: as good preservatives as the commonly used preservative
Inhibition of caries (caries): inhibited caries
Stability ([6]; pH 1.5-5.5): stable
half-life ([6]; pH 11-12.5): 5 h
Preserving effect in skin cream [3]: as good preservatives as the commonly used preservative
Sensitivity in well diffusion test (zones of inhibition) (Bacillus anthracis): sensitive
Stability in water ([7]; 2 weeks): stable
Stability in water ([7]; after 2 months): completely disappears
Function as an antibiotic [8]: did not function satisfactorily as an antibiotic
Preserving effect in toothpaste [4]: as good preservatives as the commonly used preservative
APP level causing significant inhibition (B. anthracis 3.046): 2000 ppm
APP level causing total inhibition (B. anthracis 3.046): 3000 ppm
Irritation effect on the skin [5]: no irritation effect
APP level causing significant inhibition (B. anthracis): 2000 ppm
APP level causing total inhibition (B. anthracis): 4000 ppm and >4000 ppm

C/C=C/C=C/C(=O)O [Sorbic Acid]
Effective concentration [9]: 500-3000 ppm

O=S=O [Sulphur Dioxide]
Effective concentration [10]: 800-2000 ppm
Effective concentration for inhibition [11]: 250-500 ppm

Propionic Acid and Propionate
Concentration necessary for inhibition of bacteria (bacteria): > 16000 ppm
Concentration inhibiting moulds (moulds): 125 to 12500 ppm
